US20170190671A1, “BIS(ARYL)CATECHOL DERIVATIVES AS HERBICIDES” (E I DU PONT DE NEMOURS AND COMPANY, priority 2014, published 2017)

Experiments:
[1] = test system: barnyardgrass (Echinochloa crus-galli); experiment: Test B flooded paddy; format: in vivo; settings: Echinochloa crus-galli, 336 h; 250 g ai/ha, Flood, 13 to 15 days, scale 0 (no effect) to 100 (complete control); read-out: Plant response rating, Barnyardgrass
Summary of the method: (§1)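 Test compounds are applied straight into paddy water held 3 cm above the soil surface, with that flood maintained for the whole test. After 13 to 15 days in the greenhouse, each species is scored visually relative to controls.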

[2] = test system: ducksalad (Heteranthera limosa); experiment: Test B flooded paddy; format: in vivo; settings: Heteranthera limosa, 336 h; 250 g ai/ha, Flood, 13 to 15 days, scale 0 (no effect) to 100 (complete control); read-out: Plant response rating, Ducksalad
Summary of the method: as §1

[3] = test system: rice (Oryza sativa); experiment: Test B flooded paddy; format: in vivo; settings: Oryza sativa, 336 h; 250 g ai/ha, Flood, 13 to 15 days, scale 0 (no effect) to 100 (complete control); read-out: Plant response rating, Rice
Summary of the method: as §1

[4] = test system: sedge, umbrella (small-flower umbrella sedge, Cyperus difformis); experiment: Test B flooded paddy; format: in vivo; settings: Cyperus difformis, 336 h; 250 g ai/ha, Flood, 13 to 15 days, scale 0 (no effect) to 100 (complete control); read-out: Plant response rating, Sedge, Umbrella
Summary of the method: as §1

[5] = test system: Italian ryegrass (Lolium multiflorum); experiment: Test A preemergence; format: in vivo; settings: Lolium multiflorum, pre-emergence, 240 h, 0 to 100 scale (0 no effect, 100 complete control), read-out: Ryegrass, Italian plant response rating; for pest or weed control at 31 g/ha: 31 g ai/ha; for pest or weed control at 125 g/ha: 125 g ai/ha
Summary of the method: (§2)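 Visual injury scored 0–100 (100 = complete control) against untreated controls about 10 days after treatment in a greenhouse. Test chemicals, formulated with surfactant in non-phytotoxic solvent, were sprayed on soil preemergence or on 2-10 cm, one- to two-leaf plants postemergence.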

[6] = test system: barnyardgrass (Echinochloa crus-galli); experiment: Test A preemergence; format: in vivo; settings: Echinochloa crus-galli, pre-emergence, 240 h; for pest or weed control at 31 g/ha: 31 g ai/ha, 0 to 100 scale (0 no effect, 100 complete control), read-out: Barnyardgrass plant response rating; for pest or weed control at 125 g/ha: 125 g ai/ha, 0 to 100 scale, read-out: Plant response rating, Barnyardgrass
Summary of the method: as §2

[7] = test system: giant foxtail (Setaria faberii); experiment: Test A preemergence; format: in vivo; settings: Setaria faberi, pre-emergence, 240 h, 0 to 100 scale (0 no effect, 100 complete control), read-out: Foxtail, Giant plant response rating; for pest or weed control at 31 g/ha: 31 g ai/ha; for pest or weed control at 125 g/ha: 125 g ai/ha
Summary of the method: as §2

[8] = test system: kochia (Kochia scoparia); experiment: Test A preemergence; format: in vivo; settings: Bassia scoparia, pre-emergence, 240 h, 0 to 100 scale (0 no effect, 100 complete control), read-out: Kochia plant response rating; for pest or weed control at 31 g/ha: 31 g ai/ha; for pest or weed control at 125 g/ha: 125 g ai/ha
Summary of the method: as §2

[9] = test system: pigweed (Amaranthus retroflexus); experiment: Test A preemergence; format: in vivo; settings: Amaranthus retroflexus, pre-emergence, 240 h, 0 to 100 scale (0 no effect, 100 complete control), read-out: Pigweed plant response rating; for pest or weed control at 31 g/ha: 31 g ai/ha; for pest or weed control at 125 g/ha: 125 g ai/ha
Summary of the method: as §2

[10] = test system: ragweed (common ragweed, Ambrosia elatior); experiment: Test A preemergence; format: in vivo; settings: Ambrosia artemisiifolia, pre-emergence, 240 h, 0 to 100 scale (0 no effect, 100 complete control), read-out: Ragweed plant response rating; for pest or weed control at 31 g/ha: 31 g ai/ha; for pest or weed control at 125 g/ha: 125 g ai/ha
Summary of the method: as §2

[11] = test system: Italian ryegrass (Lolium multiflorum); experiment: Test A postemergence; format: in vivo; settings: Lolium multiflorum, post-emergence, 240 h, 0 to 100 scale, read-out: Plant response rating, Ryegrass, Italian; for pest or weed control at 31 g/ha: 31 g ai/ha; for pest or weed control at 125 g/ha: 125 g ai/ha
Summary of the method: as §2

[12] = test system: barnyardgrass (Echinochloa crus-galli); experiment: Test A postemergence; format: in vivo; settings: Echinochloa crus-galli, post-emergence, 240 h, 0 to 100 scale, read-out: Plant response rating, Barnyardgrass; for pest or weed control at 31 g/ha: 31 g ai/ha; for pest or weed control at 125 g/ha: 125 g ai/ha
Summary of the method: as §2

[13] = test system: blackgrass (Alopecurus myosuroides); experiment: Test A postemergence; format: in vivo; settings: Alopecurus myosuroides, post-emergence, 240 h, 0 to 100 scale, read-out: Plant response rating, Blackgrass; for pest or weed control at 31 g/ha: 31 g ai/ha; for pest or weed control at 125 g/ha: 125 g ai/ha
Summary of the method: as §2

[14] = test system: corn (Zea mays); experiment: Test A postemergence; format: in vivo; settings: Zea mays, post-emergence, 240 h, 0 to 100 scale; for Corn plant response rating (crop injury, 0 = no effect, 100 = complete kill) at 31 g/ha: 31 g ai/ha; for Corn plant response rating (crop injury, 0 = no effect, 100 = complete kill) at 125 g/ha: 125 g ai/ha
Summary of the method: as §2

[15] = test system: galium (catchweed bedstraw, Galium aparine); experiment: Test A postemergence; format: in vivo; settings: Galium, post-emergence, 240 h, 0 to 100 scale, read-out: Plant response rating, Galium; for pest or weed control at 31 g/ha: 31 g ai/ha; for pest or weed control at 125 g/ha: 125 g ai/ha
Summary of the method: as §2

[16] = test system: giant foxtail (Setaria faberii); experiment: Test A postemergence; format: in vivo; settings: Setaria faberi, post-emergence, 240 h, 0 to 100 scale, read-out: Plant response rating, Foxtail, Giant; for pest or weed control at 31 g/ha: 31 g ai/ha; for pest or weed control at 125 g/ha: 125 g ai/ha
Summary of the method: as §2

[17] = test system: kochia (Kochia scoparia); experiment: Test A postemergence; format: in vivo; settings: Bassia scoparia, post-emergence, 240 h, 0 to 100 scale, read-out: Plant response rating, Kochia; for pest or weed control at 31 g/ha: 31 g ai/ha; for pest or weed control at 125 g/ha: 125 g ai/ha
Summary of the method: as §2

[18] = test system: pigweed (Amaranthus retroflexus); experiment: Test A postemergence; format: in vivo; settings: Amaranthus retroflexus, post-emergence, 240 h, 0 to 100 scale, read-out: Plant response rating, Pigweed; for pest or weed control at 31 g/ha: 31 g ai/ha; for pest or weed control at 125 g/ha: 125 g ai/ha
Summary of the method: as §2

[19] = test system: ragweed (common ragweed, Ambrosia elatior); experiment: Test A postemergence; format: in vivo; settings: Ambrosia artemisiifolia, post-emergence, 240 h, 0 to 100 scale, read-out: Plant response rating, Ragweed; for pest or weed control at 31 g/ha: 31 g ai/ha; for pest or weed control at 125 g/ha: 125 g ai/ha
Summary of the method: as §2

[20] = test system: wheat (Triticum aestivum); experiment: Test A postemergence; format: in vivo; settings: Triticum aestivum, post-emergence, 240 h, 0 to 100 scale, read-out: Plant response rating, Wheat; for plant injury at 31 g/ha: 31 g ai/ha; for plant injury at 125 g/ha: 125 g ai/ha
Summary of the method: as §2

[21] = test system: Italian ryegrass (Lolium multiflorum); experiment: Test C postemergence; format: in vivo; settings: Lolium multiflorum, post-emergence, 336 h, Postemergence, scale 0 to 100, read-out: Plant response rating, Ryegrass, Italian; for pest or weed control at 31 g/ha: 31 g ai/ha; for pest or weed control at 62 g/ha: 62 g ai/ha; for pest or weed control at 125 g/ha: 125 g ai/ha
Summary of the method: (§3)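 Seeds in loam-sand soil were treated preemergence, and plants at the 1- to 4-leaf stage (2-18 cm) in peat-based medium were sprayed postemergence, with test chemicals in a non-phytotoxic solvent containing surfactant. After 13-15 days in a greenhouse, response was rated visually against controls from 0 (no effect) to 100 (complete control).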

[22] = test system: wild oat (Avena fatua); experiment: Test C postemergence; format: in vivo; settings: Avena fatua, post-emergence, Postemergence, scale 0 to 100, read-out: Plant response rating, Oat, Wild; for pest or weed control at 31 g/ha: 31 g ai/ha; for pest or weed control at 62 g/ha: 62 g ai/ha; for pest or weed control at 125 g/ha: 125 g ai/ha
Summary of the method: as §3

Fc1cnc(Oc2c(F)ccc(F)c2Oc2ncc(F)cn2)nc1 [Compound 29, 2,2′-[(3,6-difluoro-1,2-phenylene)bis(oxy)]bis[5-fluoropyrimidine]]
pest or weed control at 250 g/ha [1]: 90% | pest or weed control at 250 g/ha [2]: 90% | plant injury at 250 g/ha [3]: 85% | pest or weed control at 250 g/ha [4]: 75% | pest or weed control at 31 g/ha [5]: 0% | pest or weed control at 125 g/ha [5]: 30% | pest or weed control at 31 g/ha [6]: 10% | pest or weed control at 125 g/ha [6]: 100% | pest or weed control at 31 g/ha [7]: 80% | pest or weed control at 125 g/ha [7]: 100% | pest or weed control at 31 g/ha [8]: 80% | pest or weed control at 125 g/ha [8]: 100% | pest or weed control at 31 g/ha [9]: 100% | pest or weed control at 125 g/ha [9]: 100% | pest or weed control at 31 g/ha [10]: 0% | pest or weed control at 125 g/ha [10]: 90% | pest or weed control at 31 g/ha [11]: 20% | pest or weed control at 125 g/ha [11]: 20% | pest or weed control at 31 g/ha [12]: 20% | pest or weed control at 125 g/ha [12]: 80% | pest or weed control at 31 g/ha [13]: 80% | pest or weed control at 125 g/ha [13]: 90% | Corn plant response rating (crop injury, 0 = no effect, 100 = complete kill) at 31 g/ha [14]: 20% | Corn plant response rating (crop injury, 0 = no effect, 100 = complete kill) at 125 g/ha [14]: 90% | pest or weed control at 31 g/ha [15]: 100% | pest or weed control at 125 g/ha [15]: 100% | pest or weed control at 31 g/ha [16]: 30% | pest or weed control at 125 g/ha [16]: 60% | pest or weed control at 31 g/ha [17]: 80% | pest or weed control at 125 g/ha [17]: 100% | pest or weed control at 31 g/ha [18]: 90% | pest or weed control at 125 g/ha [18]: 90% | pest or weed control at 31 g/ha [19]: 40% | pest or weed control at 125 g/ha [19]: 60% | plant injury at 31 g/ha [20]: 30% | plant injury at 125 g/ha [20]: 80% | pest or weed control at 31 g/ha [21]: 0% | pest or weed control at 62 g/ha [21]: 35% | pest or weed control at 125 g/ha [21]: 20% | pest or weed control at 31 g/ha [22]: 5% | pest or weed control at 62 g/ha [22]: 30% | pest or weed control at 125 g/ha [22]: 35% | melting point: 158 to 161 °C

Fc1ccc(F)c(Oc2ncc(Cl)cn2)c1Oc1ncc(Cl)cn1 [Compound 34, 2,2′-[(3,6-difluoro-1,2-phenylene)bis(oxy)]bis[5-chloropyrimidine]]
pest or weed control at 250 g/ha [1]: 0% | pest or weed control at 250 g/ha [2]: 30% | plant injury at 250 g/ha [3]: 0% | pest or weed control at 250 g/ha [4]: 30% | pest or weed control at 31 g/ha [5]: 0% | pest or weed control at 125 g/ha [5]: 50% | pest or weed control at 31 g/ha [6]: 10% | pest or weed control at 125 g/ha [6]: 80% | pest or weed control at 31 g/ha [7]: 70% | pest or weed control at 125 g/ha [7]: 90% | pest or weed control at 31 g/ha [8]: 80% | pest or weed control at 125 g/ha [8]: 90% | pest or weed control at 31 g/ha [9]: 100% | pest or weed control at 125 g/ha [9]: 100% | pest or weed control at 31 g/ha [10]: 0% | pest or weed control at 125 g/ha [10]: 10% | pest or weed control at 31 g/ha [11]: 10% | pest or weed control at 125 g/ha [11]: 50% | pest or weed control at 31 g/ha [12]: 0% | pest or weed control at 125 g/ha [12]: 50% | pest or weed control at 31 g/ha [13]: 60% | pest or weed control at 125 g/ha [13]: 70% | Corn plant response rating (crop injury, 0 = no effect, 100 = complete kill) at 31 g/ha [14]: 0% | Corn plant response rating (crop injury, 0 = no effect, 100 = complete kill) at 125 g/ha [14]: 10% | pest or weed control at 31 g/ha [15]: 80% | pest or weed control at 125 g/ha [15]: 90% | pest or weed control at 31 g/ha [16]: 30% | pest or weed control at 125 g/ha [16]: 70% | pest or weed control at 31 g/ha [17]: 50% | pest or weed control at 125 g/ha [17]: 70% | pest or weed control at 31 g/ha [18]: 70% | pest or weed control at 125 g/ha [18]: 80% | pest or weed control at 31 g/ha [19]: 30% | pest or weed control at 125 g/ha [19]: 50% | plant injury at 31 g/ha [20]: 0% | plant injury at 125 g/ha [20]: 30% | pest or weed control at 31 g/ha [21]: 0% | pest or weed control at 62 g/ha [21]: 0% | pest or weed control at 125 g/ha [21]: 0% | pest or weed control at 31 g/ha [22]: 0% | pest or weed control at 62 g/ha [22]: 5% | pest or weed control at 125 g/ha [22]: 10% | melting point: 158 to 161 °C
